Experimental data reported in ChEMBL document CHEMBL1201862, “PubChem BioAssay data set” (2004).
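Tested at 5 concentrations; 48 h exposure; 96-well plates; endpoints linearly interpolated, else capped at highest concentration. GI50 is the concentration that inhibits growth by half.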 The source made the active and inactive calls. No stated cut-off is given here; in the data, active = GI50 up to about 1.1 µM and inactive = higher.

Experiments:
Assay in all cases: growth of human tumour cells (NCI), 48 h
CCRF-CEM = system: CCRF-CEM
A549 = system: A549
T47D = system: T47D
A498 = system: A498
RXF 393 = system: RXF 393
RPMI-8226 = system: RPMI-8226
SK-MEL-2 = system: SK-MEL-2
MOLT-4 = system: MOLT-4
HOP-62 = system: HOP-62
UACC-62 = system: UACC-62
M14 = system: M14
NCI-H460 = system: NCI-H460
KM12 = system: KM12
COLO 205 = system: COLO 205
NCI-H226 = system: NCI-H226
SW-620 = system: SW-620
UACC-257 = system: UACC-257
SK-MEL-28 = system: SK-MEL-28
MDA-N = system: MDA-N
OVCAR-5 = system: OVCAR-5
SNB-75 = system: SNB-75
Malme-3M = system: Malme-3M
SNB-19 = system: SNB-19
OVCAR-8 = system: OVCAR-8
SR = system: SR
IGROV-1 = system: IGROV-1
TK-10 = system: TK-10
Hs-578T = system: Hs-578T
MCF7 = system: MCF7
PC-3 = system: PC-3
EKVX = system: EKVX
786-0 = system: 786-0
HT-29 = system: HT-29
BT-549 = system: BT-549
HCT-116 = system: HCT-116
K562 = system: K562
HOP-92 = system: HOP-92
HL-60 = system: HL-60
SK-MEL-5 = system: SK-MEL-5
U-251 = system: U-251
UO-31 = system: UO-31
ACHN = system: ACHN
HCC 2998 = system: HCC 2998
NCI-H23 = system: NCI-H23
DU-145 = system: DU-145
OVCAR-4 = system: OVCAR-4
HCT-15 = system: HCT-15
SF-268 = system: SF-268
SN12C = system: SN12C
SF-539 = system: SF-539
MDA-MB-231 = system: MDA-MB-231
MDA-MB-435 = system: MDA-MB-435
NCI/ADR-RES = system: NCI/ADR-RES
LOX IMVI = system: LOX IMVI
CAKI-1 = system: CAKI-1
OVCAR-3 = system: OVCAR-3
SK-OV-3 = system: SK-OV-3
SF-295 = system: SF-295
NCI-H522 = system: NCI-H522

Measured: GI50

COC(=O)C(Cc1c[nH]c2ccccc12)NC(=O)C(Cc1c[nH]cn1)NC(=O)C1CCC(=O)N1C(=O)OCc1ccccc1 (centres undefined)
inactive: CCRF-CEM > 100 µM | A549 > 100 µM | T47D 5.13 µM | A498 7.35 µM | RXF 393 > 100 µM | RPMI-8226 > 100 µM | SK-MEL-2 > 100 µM | MOLT-4 > 100 µM | HOP-62 > 100 µM | UACC-62 > 100 µM | M14 > 100 µM | NCI-H460 > 100 µM | KM12 > 100 µM | COLO 205 > 100 µM | NCI-H226 > 100 µM | SW-620 > 100 µM | UACC-257 > 100 µM | SK-MEL-28 > 100 µM | MDA-N > 100 µM | OVCAR-5 > 100 µM | SNB-75 > 100 µM | Malme-3M > 100 µM | SNB-19 > 100 µM | OVCAR-8 > 100 µM | SR > 100 µM | IGROV-1 > 100 µM | TK-10 > 100 µM | Hs-578T > 100 µM | MCF7 > 100 µM | PC-3 > 100 µM | EKVX > 100 µM | 786-0 > 100 µM | HT-29 > 100 µM | BT-549 > 100 µM | HCT-116 > 100 µM | K562 > 100 µM | HOP-92 > 100 µM | HL-60 > 100 µM | SK-MEL-5 > 100 µM | U-251 > 100 µM | UO-31 > 100 µM | ACHN > 100 µM | HCC 2998 > 100 µM | NCI-H23 > 100 µM

Cc1cc(C2CC(O)C(CO)O2)c(F)cc1F (centres undefined)
inactive: DU-145 > 100 µM | OVCAR-4 > 100 µM | CCRF-CEM > 100 µM | A549 > 100 µM | T47D > 100 µM | A498 > 100 µM | RXF 393 > 100 µM | MOLT-4 > 100 µM | HOP-62 > 100 µM | UACC-62 > 100 µM | M14 > 100 µM | NCI-H460 > 100 µM | KM12 > 100 µM | COLO 205 > 100 µM | NCI-H226 > 100 µM | SF-268 > 100 µM | SW-620 > 100 µM | SN12C > 100 µM | UACC-257 > 100 µM | SF-539 > 100 µM | SK-MEL-28 > 100 µM | MDA-N > 100 µM | MDA-MB-231 > 100 µM | MDA-MB-435 > 100 µM | NCI/ADR-RES > 100 µM | OVCAR-5 > 100 µM | SNB-75 > 100 µM | Malme-3M > 100 µM | SNB-19 > 100 µM | OVCAR-8 > 100 µM | SR > 100 µM | IGROV-1 > 100 µM | TK-10 > 100 µM | LOX IMVI > 100 µM | CAKI-1 > 100 µM | MCF7 > 100 µM | OVCAR-3 > 100 µM | PC-3 > 100 µM | SK-OV-3 > 100 µM | EKVX > 100 µM | 786-0 > 100 µM | HT-29 > 100 µM | BT-549 > 100 µM | HCT-116 > 100 µM | K562 > 100 µM | HOP-92 > 100 µM | HL-60 91.6 µM | SF-295 > 100 µM | NCI-H522 > 100 µM | U-251 > 100 µM | UO-31 > 100 µM | ACHN > 100 µM | HCC 2998 > 100 µM | NCI-H23 > 100 µM
> 100 µM: HCT-15

CC1=C(C(=O)OC23CC4CC(CC(C4)C2)C3)C(c2ccccc2OC(F)F)C(C(=O)OC23CC4CC(CC(C4)C2)C3)=C(C)N1 (centres undefined)
> 100 µM: HCT-15
inactive: DU-145 > 100 µM | OVCAR-4 > 100 µM | CCRF-CEM > 100 µM | A549 > 100 µM | T47D > 100 µM | A498 > 100 µM | RXF 393 > 100 µM | RPMI-8226 > 100 µM | SK-MEL-2 > 100 µM | MOLT-4 63.7 µM | HOP-62 > 100 µM | UACC-62 > 100 µM | M14 > 100 µM | NCI-H460 > 100 µM | KM12 > 100 µM | COLO 205 > 100 µM | NCI-H226 > 100 µM | SF-268 > 100 µM | SW-620 > 100 µM | SN12C > 100 µM | UACC-257 > 100 µM | SF-539 > 100 µM | SK-MEL-28 > 100 µM | MDA-N > 100 µM | MDA-MB-231 > 100 µM | MDA-MB-435 > 100 µM | NCI/ADR-RES > 100 µM | OVCAR-5 > 100 µM | SNB-75 43.7 µM | Malme-3M > 100 µM | SNB-19 > 100 µM | OVCAR-8 > 100 µM | SR > 100 µM | IGROV-1 > 100 µM | LOX IMVI > 100 µM | CAKI-1 > 100 µM | Hs-578T 68.2 µM | MCF7 74.6 µM | OVCAR-3 50.5 µM | SK-OV-3 > 100 µM | EKVX > 10 µM | 786-0 > 100 µM | HT-29 > 100 µM | BT-549 > 100 µM | HCT-116 > 100 µM | HOP-92 > 100 µM | HL-60 > 100 µM | SK-MEL-5 > 100 µM | SF-295 > 100 µM | NCI-H522 75.2 µM | U-251 > 100 µM | UO-31 > 100 µM | HCC 2998 > 100 µM | NCI-H23 > 100 µM
